Results reported in patent US20220402950A1, “SUBSTITUTED BENZIMIDAZOLES AS PAD4 INHIBITORS” (BRISTOL-MYERS SQUIBB COMPANY, priority 2018, published 2022).

biological target: human PAD4 (hPAD4) (Homo sapiens, UniProt Q9UM07); test: RFMS Human PAD4 Functional Assay; type: biochemical; conditions: hPAD4 RFMS IC50, human PAD4, rapid-fire mass spectrum (RFMS) assay; 5 nM hPAD4, 250 μM BAEE
Summary of the method: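 RapidFire ESI-MS quantification, normalised to a modified-citrulline internal standard, after phenyl glyoxal (final 4 mM) derivatisation of the TCA-quenched reaction. The enzyme (10 nM) sat 30 min with compound (up to 50 μM final) before 500 μM BAEE (as added) started a 90 min, 37 °C reaction. Buffer: HEPES pH 7.5, 50 μM calcium, 5 μM TPEN.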

Chain of human PAD4 (hPAD4) (Q9UM07 whole entry): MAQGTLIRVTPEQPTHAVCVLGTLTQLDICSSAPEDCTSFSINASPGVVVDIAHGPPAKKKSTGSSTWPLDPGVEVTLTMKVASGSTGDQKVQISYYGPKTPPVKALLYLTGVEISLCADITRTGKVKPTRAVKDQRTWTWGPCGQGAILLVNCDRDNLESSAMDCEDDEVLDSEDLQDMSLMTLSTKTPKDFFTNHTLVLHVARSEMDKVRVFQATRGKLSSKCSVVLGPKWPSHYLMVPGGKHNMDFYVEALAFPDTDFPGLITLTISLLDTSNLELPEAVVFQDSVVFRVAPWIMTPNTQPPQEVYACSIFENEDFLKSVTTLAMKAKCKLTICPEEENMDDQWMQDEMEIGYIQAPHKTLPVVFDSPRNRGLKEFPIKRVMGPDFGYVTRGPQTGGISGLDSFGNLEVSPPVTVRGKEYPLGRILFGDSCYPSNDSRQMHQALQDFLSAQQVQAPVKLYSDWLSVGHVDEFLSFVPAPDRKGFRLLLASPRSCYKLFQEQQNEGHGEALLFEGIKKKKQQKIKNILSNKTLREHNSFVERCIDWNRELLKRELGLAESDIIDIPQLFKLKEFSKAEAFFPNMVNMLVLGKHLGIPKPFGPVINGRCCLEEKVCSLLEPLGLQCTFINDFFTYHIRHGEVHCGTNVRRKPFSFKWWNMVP

| Structure (SMILES) | IC50 [nM] |
| --- | --- |
| COc1cc(C(=O)N2C[C@H]3CC[C@@H]2[C@@H]3N)cc2nc(-c3cc4cccc(NC5CCN(C)CC5)c4n3CC3CC3)n(C)c12 [Example 170, ((1R,4R,7R)-7-amino-2-azabicyclo[2.2.1]heptan-2-yl)(2-(1-(cyclopropylmethyl)-7-((1-methylpiperidin-4-yl)amino)-1H-indol-2-yl)-7-methoxy-1-methyl-1H-benzo[d]imidazol-5-yl)methanone] | 59 |
| COc1cc(C(=O)N2C[C@H]3CC[C@@H]2[C@@H]3N)cc2nc(-c3cc4cccc(C5CCN(C(=O)COC(C)C)CC5)c4n3CC3CC3)n(C)c12 [Example 239, 1-(4-(2-(5-((1R,4R,7R)-7-amino-2-azabicyclo[2.2.1]heptane-2-carbonyl)-7-methoxy-1-methyl-1H-benzo[d]imidazol-2-yl)-1-(cyclopropylmethyl)-1H-indol-7-yl)piperidin-1-yl)-2-isopropoxyethan-1-one] | 119 |
| COc1cc(C(=O)N2C[C@H]3CC[C@@H]2[C@@H]3N)cc2nc(-c3cc4cccc(CCc5c(C)n[nH]c5C)c4n3CC3CC3)n(C)c12 [Example 33, (1R,4R,7R)-2-{2-[1-(cyclopropylmethyl)-7-[2-(3,5-dimethyl-1H-pyrazol-4-yl)ethyl]-1H-indol-2-yl]-7-methoxy-1-methyl-1H-1,3-benzodiazole-5-carbonyl}-2-azabicyclo[2.2.1]heptan-7-amine] | 129 |
| C=CC(=O)Nc1cccc(-c2cccc3cc(-c4nc5cc(C(=O)N6C[C@H]7CC[C@@H]6[C@@H]7N)cc(OC)c5n4C)n(CC4CC4)c23)c1 [Example 88, N-[3-(2-{5-[(1R,4R,7R)-7-amino-2-azabicyclo[2.2.1]heptane-2-carbonyl]-7-methoxy-1-methyl-1H-1,3-benzodiazol-2-yl}-1-(cyclopropylmethyl)-1H-indol-7-yl)phenyl]prop-2-enamide] | 56 |
| COC(=O)Nc1ccc(-c2cccc3cc(-c4nc5cc(C(=O)N6C[C@H]7CC[C@@H]6[C@@H]7N)cc(OC)c5n4C)n(CC4CC4)c23)cn1 [Example 105, methyl N-[5-(2-{5-[(1R,4R,7R)-7-amino-2-azabicyclo[2.2.1]heptane-2-carbonyl]-7-methoxy-1-methyl-1H-1,3-benzodiazol-2-yl}-1-(cyclopropylmethyl)-1H-indol-7-yl)pyridin-2-yl]carbamate] | 99 |

same assay, conditions: human PAD4, rapid-fire mass spectrum (RFMS) assay; 5 nM hPAD4, 250 μM BAEE; read-out: hPAD4 RFMS IC50

| Structure (SMILES) | IC50 [nM] |
| --- | --- |
| COc1cc(C(=O)N2C[C@H]3CC[C@@H]2[C@@H]3N)cc2nc(-c3cc4cccc(Nc5ccccc5CO)c4n3CC3CC3)n(C)c12 [compound 182, ((1R,4R,7R)-7-amino-2-azabicyclo[2.2.1]heptan-2-yl)(2-(1-(cyclopropylmethyl)-7-((2-(hydroxymethyl)phenyl)amino)-1H-indol-2 yl)-7-methoxy-1-methyl-1H-benzo[d]imidazol-5-yl)methanone] | 191 |
| COc1cc(C(=O)N2C[C@H]3CC[C@@H]2[C@@H]3N)cc2nc(-c3cc4cccc(C5CN(S(C)(=O)=O)C5)c4n3CC3CC3)n(C)c12 [Example 64, (1R,4R,7R)-2-{2-[1-(cyclopropylmethyl)-7-(1-methanesulfonylazetidin-3-yl)-1H-indol-2-yl]-7-methoxy-1-methyl-1H-1,3-benzodiazole-5-carbonyl}-2-azabicyclo[2.2.1]heptan-7-amine] | 31 |
